Test results published in paper PMC6941124 (International Journal of Molecular Sciences, 2019).
Changes are numbered by the printed parent chain. Values joined by “and” are separate entries in the source; they are usually repeats but may differ in a detail not shown here. Equal entries are not always repeated.

Tests used:
CK1ε = CK1ε (Homo sapiens, UniProt P49674); assay: in vitro kinase assay, CK1ε; type: biochemical; conditions: 10 µM inhibitor, initial screening
[1] = test system: HeLa CK1δ−/− cells expressing CK1δ R168H; assay: MTT viability assay, HeLa CK1δ−/− cells expressing CK1δ R168H; type: cell-based; conditions: 48 h
Procedure: (§1) Parental HeLa cells, as well as HeLa CSNK1D knock-out cells (CK1δ^−/−) (generated by CRISP/Cas9 technology and provided by EDIGENE, Beijing, China), were cultured in Dulbecco’s Modified Eagle medium (DMEM). HCT-116 and HT-29 colon cancer cells were cultured in McCoy’s 5A medium whereas SW480 and SW620 colon cancer cells were cultured in Leibovitz’s L-15 medium. All media were supplemented with 10% (v/v) fetal bovine serum (FBS), 100 units/mL penicillin, and 100 µg/mL streptomycin. DMEM-based medium for the culture of HeLa CSNK1D knock-out cells was additionally supplemented with 1 μg/mL puromycin. Cell cultures were maintained at 37 °C in a humidified atmosphere containing 5% CO2. Cells were transfected using Effectene transfection reagent (Qiagen, Hilden, Germany) according to the manufacturer’s instructions. […]
(§2) For performing MTT viability assays, cells were seeded in a 96-well plate (5 × 10^4 cells/well for HeLa cells (parental, CK1δ^−/−, or CK1δ^−/− cells stably transfected with wild type or mutant CK1δ), HCT-116, and HT-29 cells or 7.5 × 10^4 cell/well for SW480 and SW620 cells). […] Absorbance was measured at 570 nm with TriStar^2 LB942 Microplate Reader (Berthold Technologies, Bad Wildbad, Germany) and data analysis was performed using GraphPad Prism 6 (GraphPad Software, San Diego, CA, USA).

[2] = test system: HeLa CK1δ−/− cells expressing CK1δ T67S; assay: MTT viability assay, HeLa CK1δ−/− cells expressing CK1δ T67S; type: cell-based; conditions: 48 h
Procedure: as §1, §2

CK1δ R168H = molecular target: T1, CK1δ R168H (Homo sapiens, UniProt P48730, R168H); assay: in vitro kinase assay, CK1δ mutant R168H; type: biochemical; conditions: 10 µM inhibitor, among 16-19, Figure 5c
T1 sequence (P48730 1-415 R168H): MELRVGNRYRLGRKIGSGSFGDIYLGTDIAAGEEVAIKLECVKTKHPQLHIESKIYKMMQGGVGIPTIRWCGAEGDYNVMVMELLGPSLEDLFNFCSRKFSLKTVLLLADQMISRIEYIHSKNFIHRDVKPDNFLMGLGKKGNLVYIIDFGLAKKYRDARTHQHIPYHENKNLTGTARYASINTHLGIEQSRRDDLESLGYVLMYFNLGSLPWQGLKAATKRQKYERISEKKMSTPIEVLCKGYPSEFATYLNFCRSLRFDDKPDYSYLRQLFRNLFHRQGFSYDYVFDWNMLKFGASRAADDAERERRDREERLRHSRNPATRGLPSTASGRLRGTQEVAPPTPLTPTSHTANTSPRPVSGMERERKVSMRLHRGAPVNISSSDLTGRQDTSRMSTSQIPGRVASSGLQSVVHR
Procedure: (§3) Overexpression and purification of GST-CK1δ fusion proteins, either wild type or mutant, were performed as described previously.
(§4) Each kinase assay reaction was performed in kinase buffer (25 mM Tris-HCl (pH 7.5), 10 μM ATP, 10 mM MgCl2, 100 μM EDTA) in presence of purified GST-CK1δ kinase as source of enzyme (either wild type or mutant), an assay-specific substrate (α-casein, GST-p53^1−64, or GST-β-catenin^1−181), and radiolabeled ATP (2 μCi [γ-^32P]-ATP). For performing Michaelis–Menten analysis increasing substrate concentrations were used (α-casein: 0.39−25 μM; GST-p53^1−64: 0.09−1.87 μM; GST-β-catenin^1−181: 0.07−1.32 μM). For biological evaluation of small molecule inhibitors (SMIs), each inhibitor compound was either tested at 10 μM concentration for initial screening or by using a dilution series (0.005−10 µM) for determination of IC50 values. DMSO was used as control. Reactions were incubated for 30 min at 30 °C and reactions were stopped using 5x SDS-loading buffer (250 mM Tris-HCl [pH 6.8], 25% (v/v) β-mercaptoethanol (MSH), 50% (v/v) glycerol, 10% (w/v) SDS, 0.5% (w/v) bromphenol blue). Subsequently, samples were separated by SDS-PAGE using 12.5% acrylamide gels, stained with Coomassie, and phosphorylated substrates were visualized on X-ray film. Incorporation of radiolabeled phosphate was quantified by scintillation counting of Coomassie-stained substrate bands. Defined dilutions of the reaction master mix were counted as well in order to convert results obtained as counts per minute (CPM) to units of transferred phosphate in pmol/min. Michaelis–Menten analysis was performed using GraphPad Prism 6 (GraphPad Software, San Diego, CA, USA).

CK1α = CK1α (Homo sapiens, UniProt P48729); assay: in vitro kinase assay, CK1α; type: biochemical; conditions: 10 µM inhibitor, initial screening
Chain of CK1α (P48729 whole entry): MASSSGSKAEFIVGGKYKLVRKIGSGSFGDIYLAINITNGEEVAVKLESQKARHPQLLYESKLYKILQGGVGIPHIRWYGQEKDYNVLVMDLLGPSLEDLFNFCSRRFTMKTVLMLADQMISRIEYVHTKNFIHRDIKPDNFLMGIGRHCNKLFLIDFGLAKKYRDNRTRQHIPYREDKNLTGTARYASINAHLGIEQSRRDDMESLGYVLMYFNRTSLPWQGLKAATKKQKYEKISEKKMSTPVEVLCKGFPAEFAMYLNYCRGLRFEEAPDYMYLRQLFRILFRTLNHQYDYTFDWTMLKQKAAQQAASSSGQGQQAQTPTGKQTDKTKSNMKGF

HeLa CK1δ−/− cells = assay: MTT viability assay, HeLa CK1δ−/− cells; type: cell-based; conditions: 48 h
Procedure: (§5) Parental HeLa cells, as well as HeLa CSNK1D knock-out cells (CK1δ^−/−) (generated by CRISP/Cas9 technology and provided by EDIGENE, Beijing, China), were cultured in Dulbecco’s Modified Eagle medium (DMEM). HCT-116 and HT-29 colon cancer cells were cultured in McCoy’s 5A medium whereas SW480 and SW620 colon cancer cells were cultured in Leibovitz’s L-15 medium. All media were supplemented with 10% (v/v) fetal bovine serum (FBS), 100 units/mL penicillin, and 100 µg/mL streptomycin. DMEM-based medium for the culture of HeLa CSNK1D knock-out cells was additionally supplemented with 1 μg/mL puromycin. Cell cultures were maintained at 37 °C in a humidified atmosphere containing 5% CO2. Cells were transfected using Effectene transfection reagent (Qiagen, Hilden, Germany) according to the manufacturer’s instructions. For selection of stably transfected clones, transfected cells were grown in selective medium, containing 0.6 mg/mL of G-418 (Calbiochem-Merck Millipore, Darmstadt, Germany).
(§6) For performing MTT viability assays, cells were seeded in a 96-well plate (5 × 10^4 cells/well for HeLa cells (parental, CK1δ^−/−, or CK1δ^−/− cells stably transfected with wild type or mutant CK1δ), HCT-116, and HT-29 cells or 7.5 × 10^4 cell/well for SW480 and SW620 cells). After 24 h, old medium was replaced with fresh medium containing either the small molecule of interest or DMSO as control. After 48 h of treatment, 10 μL MTT (5 mg/mL) was added and incubated at 37 °C for 4 h. The medium was then gently removed and 100 μL of acidic isopropanol was added (90% (v/v) isopropanol, 10% (v/v) 1 N HCl). Cell culture plates were then shaken for 30 min at room temperature. Absorbance was measured at 570 nm with TriStar^2 LB942 Microplate Reader (Berthold Technologies, Bad Wildbad, Germany) and data analysis was performed using GraphPad Prism 6 (GraphPad Software, San Diego, CA, USA).

CK1γ = assay: in vitro kinase assay, CK1γ; type: biochemical; conditions: 10 µM inhibitor, initial screening
[3] = test system: HeLa CK1δ−/− cells expressing CK1δ R127Q; assay: MTT viability assay, HeLa CK1δ−/− cells expressing CK1δ R127Q; type: cell-based; conditions: 48 h
Procedure: as §1, §2

[4] = molecular target: CK1δ wild type (GST-CK1δ) (Homo sapiens, UniProt P48730); assay: in vitro kinase assay, GST-CK1δ wild type; type: biochemical; conditions: for Kinase activity of CK1δ in presence of inhibitor: 10 µM inhibitor, initial screening; for IC50: dilution series 0.005−10 µM, mean ± standard error, triplicate
Chain of CK1δ wild type (GST-CK1δ) (P48730 whole entry): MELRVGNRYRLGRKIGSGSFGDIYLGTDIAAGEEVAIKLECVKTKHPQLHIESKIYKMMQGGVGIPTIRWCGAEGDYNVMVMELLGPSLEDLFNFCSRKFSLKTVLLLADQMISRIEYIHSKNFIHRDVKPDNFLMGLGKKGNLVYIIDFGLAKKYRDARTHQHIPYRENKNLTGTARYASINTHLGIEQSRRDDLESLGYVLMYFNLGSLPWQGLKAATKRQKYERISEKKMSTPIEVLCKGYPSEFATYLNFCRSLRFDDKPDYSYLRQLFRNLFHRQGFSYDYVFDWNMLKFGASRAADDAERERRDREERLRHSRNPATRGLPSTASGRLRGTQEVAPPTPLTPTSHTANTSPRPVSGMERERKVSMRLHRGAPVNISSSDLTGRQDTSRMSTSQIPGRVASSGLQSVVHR
Procedure: as §3, §4

CK1δ T67S = molecular target: T2, CK1δ T67S (Homo sapiens, UniProt P48730, T67S); assay: in vitro kinase assay, CK1δ mutant T67S; type: biochemical; conditions: 10 µM inhibitor, Figure 5a
T2 sequence (P48730 1-415 T67S): T1 sequence (P48730 1-415 R168H) with T67S, H168R
Procedure: as §3, §4

[5] = test system: HeLa CK1δ+/+ cells (HeLa CK1δ−/− stably transfected with CK1δ); assay: MTT viability assay, HeLa CK1δ+/+ cells; type: cell-based; conditions: 48 h
Procedure: as §5, §6

SW480 colon cancer cells = assay: MTT viability assay, SW480; type: cell-based, human; conditions: 10 µM, 48 h, initial screening (Figure 10a)
Procedure: as §5, §6

SW620 colon cancer cells = assay: MTT viability assay, SW620; type: cell-based, human; conditions: 48 h; for Reduction of cell viability, SW620: 10 µM, initial screening (Figure 10a)
Procedure: as §5, §6

HT-29 colon cancer cells = assay: MTT viability assay, HT-29; type: cell-based; conditions: 10 µM, 48 h, initial screening (Figure 10a)
Procedure: as §5, §6

[6] = test system: HCT-116 colon cancer cells; assay: MTT viability assay, HCT-116; type: cell-based; conditions: 48 h, dose series (Figure S2)
Procedure: as §1, §2

Chain of CK1ε (P49674 whole entry): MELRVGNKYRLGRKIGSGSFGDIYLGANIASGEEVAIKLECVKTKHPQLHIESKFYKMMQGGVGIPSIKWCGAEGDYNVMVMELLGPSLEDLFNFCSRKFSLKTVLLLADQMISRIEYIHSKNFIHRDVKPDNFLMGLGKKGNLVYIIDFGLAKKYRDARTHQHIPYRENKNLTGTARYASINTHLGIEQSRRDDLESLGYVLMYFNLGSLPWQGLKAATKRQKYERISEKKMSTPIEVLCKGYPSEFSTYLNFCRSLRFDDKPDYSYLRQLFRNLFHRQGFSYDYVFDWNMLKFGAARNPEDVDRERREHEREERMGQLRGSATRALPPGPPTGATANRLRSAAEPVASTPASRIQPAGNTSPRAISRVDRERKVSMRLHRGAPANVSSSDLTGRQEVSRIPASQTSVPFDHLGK

| Compound | Kinase activity of CK1ε in presence of inhibitor (CK1ε) | Kinase activity of CK1γ in presence of inhibitor (CK1γ) | Kinase activity of CK1δ in presence of inhibitor [4] | IC50 [4] | Reduction of cell viability, SW480 (SW480 colon cancer cells) | Reduction of CK1α activity (CK1α) | Reduction of cell viability, SW620 (SW620 colon cancer cells) | Reduction of cell viability, HT-29 (HT-29 colon cancer cells) | also measured |
| --- | --- | --- | --- | --- | --- | --- | --- | --- | --- |
| COc1ccc(-n2c(SCC(=O)Nc3nc4ccc(C(F)(F)F)cc4s3)nccc2=O)c(OC)c1 [Compound 18, 2-((3-(2,4-Dimethoxyphenyl)-4-oxo-3,4-dihydropyrimidin-2-yl)thio)-N-(6-(trifluoromethyl)benzo[d]thiazol-2-yl)acetamide] | strongly inhibited | not affected | strongly inhibited | 1700 nM | – | – | – | – | Effects on cell viability of CK1δ R168H-expressing HeLa cells vs CK1δ WT-expressing cells ([1]; 10 μM): stronger effects; Effects on cell viability of CK1δ T67S-expressing HeLa cells vs CK1δ WT-expressing cells ([2]; 10 μM): stronger effects; Effects on CK1δ R168H activity (CK1δ R168H): strongest effects; Kinase activity of CK1α in presence of inhibitor (CK1α): not affected; EC50 (HeLa CK1δ−/− cells; CK1, 0.313-70 µM, read-out: EC50 (CK1δ−/−), cell viability): 18500 nM; Effects on cell viability of CK1δ R127Q-expressing HeLa cells vs CK1δ WT-expressing cells ([3]; 10 μM, difference not statistically significant): stronger effects; Inhibition of CK1δ T67S compared to wild type CK1δ (CK1δ T67S): slightly stronger; Cell viability of CK1δ-expressing cells (HeLa parental or CK1δ+/+) compared to CK1δ-deficient cells (HeLa CK1δ−/−) ([5]; 25 μM): more reduced; EC50 ([5]; CK1, 0.313-70 µM, read-out: EC50 (CK1δ+/+), cell viability): 7400 nM |
| COc1ccc(Cn2c(SCC(=O)Nc3nc4ccc(C(F)(F)F)cc4s3)nccc2=O)cc1 [Compound 20, 2-((3-(4-Methoxybenzyl)-4-oxo-3,4-dihydropyrimidin-2-yl)thio)-N-(6-(trifluoromethyl)benzo[d]thiazol-2-yl)acetamide] | strongly inhibited | not affected | strongly inhibited | 90 nM and 86 nM | approximately 35% | at least 50% | about 60% | approximately 35% | Cell viability of HeLa CK1δ−/− cells expressing CK1δ R168H vs CK1δ WT ([1]; 5 μM): no mutant-specific effects; Cell viability of HeLa CK1δ−/− cells expressing CK1δ T67S vs CK1δ WT ([2]; 5 μM): no mutant-specific effects; Cell viability of HeLa CK1δ−/− compared to parental cells or HeLa CK1δ+/+ cells (HeLa CK1δ−/− cells; 5 μM): significantly less affected; Dose-dependent effects on SW620 cell viability (SW620 colon cancer cells; 0.625 to 20 µM, MTT (Figure S2)): clear dose-dependent effects; EC50 (SW620 colon cancer cells; Homo sapiens, SW-620, 0.625-20 µM, MTT, read-out: EC50 (SW620), cell viability): 3000 nM; Cell viability of HeLa CK1δ−/− cells expressing CK1δ R127Q vs CK1δ WT ([3]; 5 μM): no mutant-specific effects; Reduction of cell viability, HCT-116 ([6]; 0.625 µM): approximately 30% |
| O=C(CSc1nccc(=O)n1Cc1ccccc1F)Nc1nc2ccc(C(F)(F)F)cc2s1 [Compound 22] | strongly inhibited | not affected | strongly inhibited | 240 ± 40 nM | approximately 35% | at least 50% | 25% | approximately 35% | Reduction of cell viability, HCT-116 ([6]; 1.25 µM): approximately 30% |
